According to patent US6750228B1, “Aromatic sulfone hydroxamic acid metalloprotease inhibitor” (priority 1997, dated 2004):
pIC50: −log10 of the molar value. Like-named read-outs stand apart in the source and are kept apart here.

Assays:
Test in all cases: biochemical
[1] = molecular target: T1, MMP-2 (Homo sapiens, UniProt P08253); details: read-out: MMP-2 IC50
T1 construct: made in house; provided by Dr. Gregory Goldberg, Washington University
T1 sequence (P08253 110-660): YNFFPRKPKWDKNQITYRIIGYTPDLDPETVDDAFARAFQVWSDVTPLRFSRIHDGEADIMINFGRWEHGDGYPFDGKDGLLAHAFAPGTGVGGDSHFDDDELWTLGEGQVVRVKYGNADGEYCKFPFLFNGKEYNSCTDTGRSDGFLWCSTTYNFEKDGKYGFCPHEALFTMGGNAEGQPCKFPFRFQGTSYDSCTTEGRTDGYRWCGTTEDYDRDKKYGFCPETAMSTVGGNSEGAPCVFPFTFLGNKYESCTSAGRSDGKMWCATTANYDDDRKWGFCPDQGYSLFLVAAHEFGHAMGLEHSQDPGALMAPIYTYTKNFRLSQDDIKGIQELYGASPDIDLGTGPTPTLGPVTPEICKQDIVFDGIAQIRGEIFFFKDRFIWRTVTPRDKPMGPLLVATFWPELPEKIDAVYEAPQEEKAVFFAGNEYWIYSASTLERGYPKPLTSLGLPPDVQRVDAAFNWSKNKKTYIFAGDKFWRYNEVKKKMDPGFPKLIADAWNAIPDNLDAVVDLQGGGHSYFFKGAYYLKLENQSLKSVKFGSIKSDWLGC
Method in brief: (§1)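 Assay buffer 100 mM Tris-HCl, 100 mM NaCl, 10 mM CaCl2, pH 7.5. Activated MMP + inhibitor, 5 min RT; then methoxycoumarin peptide substrate, 4 μM final. Readout fluorescence; IC50 calculated.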

[2] = molecular target: T2, MMP-13 (Homo sapiens, UniProt P45452); details: for pIC50: read-out: MMP-13 IC50
T2 construct: made in house; host or cells: baculovirus / insect cells
Method in brief: as §1

[3] = molecular target: T3, MMP-1 (Homo sapiens, UniProt P03956); details: read-out: MMP-1 IC50
T3 construct: made in house; host or cells: transfected HT-1080 cells (provided by Dr. Harold Welgus, Washington University)
T3 sequence (P03956 100-469): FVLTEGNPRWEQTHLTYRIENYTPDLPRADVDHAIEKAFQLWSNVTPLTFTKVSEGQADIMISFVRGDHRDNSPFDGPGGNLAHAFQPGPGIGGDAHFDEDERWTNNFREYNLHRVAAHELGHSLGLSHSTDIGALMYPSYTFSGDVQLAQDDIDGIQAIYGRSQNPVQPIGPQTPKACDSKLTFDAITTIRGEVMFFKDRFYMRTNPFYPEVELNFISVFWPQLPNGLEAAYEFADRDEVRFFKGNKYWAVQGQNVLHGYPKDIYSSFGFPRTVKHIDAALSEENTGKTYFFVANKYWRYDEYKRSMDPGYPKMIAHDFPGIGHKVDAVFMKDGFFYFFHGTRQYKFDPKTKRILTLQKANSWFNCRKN
Method in brief: as §1

[4] = recombinant human MMP-2, MCA peptide substrate 4 μM, pH 7.5, room temperature
[5] = recombinant human MMP-13, MCA peptide substrate 4 μM, pH 7.5, room temperature
[6] = recombinant human MMP-1, MCA peptide substrate 4 μM, pH 7.5, room temperature

Row | SMILES | pIC50 [1, 4] | pIC50 [2, 5] | pIC50 [3, 6] | IC50 ([2]; MMP-13 IC50 (nM), recombinant human MMP-13, MCA peptide substrate 4 μM, pH 7.5, room temperature) | pIC50 [1] | pIC50 [2] | pIC50 [3]
1 | COc1ccc(C(=O)C2CCN(c3ccc(S(=O)(=O)C4(C(=O)NO)CCOCC4)cc3)CC2)cc1 [Example 80] | 6.25 | 8.39 | < 5.00 | – | – | – | –
2 | O=C(NO)C1(S(=O)(=O)c2ccc(N3CCC(OCc4cccnc4)CC3)cc2)CCOCC1 [Example 580] | 6.15 | 7.43 | < 5.00 | – | – | – | –
3 | COc1ccc(S(=O)(=O)N2CCN(c3ccc(S(=O)(=O)C4(C(=O)NO)CCOCC4)cc3)CC2)cc1 [Example 678] | 7.30 | 8.30 | < 5.00 | – | – | – | –
4 | CCCCOC1CCN(c2ccc(S(=O)(=O)C3(C(=O)NO)CCN(C(=O)OC(C)(C)C)CC3)cc2)CC1 [Example 442] | 6.68 | 8.00 | < 5.00 | – | – | – | –
5 | O=C(NO)C1(S(=O)(=O)c2ccc(N3CC[C@@H](OCc4ccc(F)cc4)C3)cc2)CCOCC1 [Example 531] | 8.00 | 7.89 | < 5.00 | – | – | – | –
6 | O=C(NO)C1(S(=O)(=O)c2ccc(N3CCN(c4ccc(OC(F)(F)F)cc4)CC3)cc2)CCOCC1 [Example 695] | 7.64 | 8.70 | < 5.00 | – | – | – | –
7 | Cc1cc(C)cc(C(=O)C2CCN(c3ccc(S(=O)(=O)C4(C(=O)NO)CCOCC4)cc3)CC2)c1 [Example 730] | 5.52 | 7.43 | < 5.00 | – | – | – | –
8 | O=C(NO)C1(S(=O)(=O)c2ccc(N3CCC(c4cccc5ccccc45)CC3)cc2)CCOCC1 [Example 540] | 6.30 | – | < 5.00 | 11.4 nM | – | – | –
9 | CN(C)c1ccc(NC(=O)C2CCN(c3ccc(S(=O)(=O)C4(C(=O)NO)CCOCC4)cc3)CC2)cc1 [Example 78] | 6.14 | 7.93 | < 5.00 | – | – | – | –
10 | O=C(Cn1ccnc1)N1CCC(C(=O)NO)(S(=O)(=O)c2ccc(Oc3ccc(C(F)(F)F)cc3)cc2)CC1 [Example 317] | 9.40 | 8.85 | < 5.00 | – | – | – | –
11 | CC1CC(C)CN(C(=O)C2CCN(c3ccc(S(=O)(=O)C4(C(=O)NO)CCN(C(=O)CNCCN(C)C)CC4)cc3)CC2)C1 (stereo not drawn) [Example 289] | < 5.00 | 7.30 | < 5.00 | – | – | – | –
12 | CN(C)S(=O)(=O)N(C)C1CCN(c2ccc(S(=O)(=O)C3(C(=O)NO)CCOCC3)cc2)CC1 [Example 832] | 5.70 | 7.74 | < 5.00 | – | – | – | –
13 | O=C(c1ccccc1)N1CCN(c2ccc(S(=O)(=O)C3(C(=O)NO)CCOCC3)cc2)CC1 [Example 593] | 6.19 | 6.38 | < 5.00 | – | – | – | –
14 | O=C(NO)C1(S(=O)(=O)c2ccc(N3CCC(Oc4ccc([N+](=O)[O-])cc4)CC3)cc2)CCOCC1 [Example 546] | 7.73 | 8.57 | < 5.00 | – | – | – | –
15 | COCCN1CCN(CC(=O)N2CCC(C(=O)NO)(S(=O)(=O)c3ccc(N4CCC(C(=O)N5CC(C)CC(C)C5)CC4)cc3)CC2)CC1 (stereo not drawn) [Example 307] | < 5.00 | 7.40 | < 5.00 | – | – | – | –
16 | CC1CCCN(C(=O)C2CCN(c3ccc(S(=O)(=O)C4(C(=O)NO)CCOCC4)cc3)CC2)C1 (stereo not drawn) [Example 47] | – | – | – | – | 5.22 | 7.94 | < 5.00
17 | O=C(NO)C1(S(=O)(=O)c2ccc(N3CC[C@@H](OCc4ccc(OC(F)(F)F)cc4)C3)cc2)CCOCC1 [Example 467] | 6.85 | 7.57 | < 5.00 | – | – | – | –
18 | Cn1ccnc1CN1CCC(C(=O)NO)(S(=O)(=O)c2ccc(Oc3ccc(OC(F)(F)F)cc3)cc2)CC1 [Example 386] | 9.70 | 9.40 | 5.68 | – | – | – | –
19 | CN(C)c1ccc(NC(=S)N2CCC(C(=O)NO)(S(=O)(=O)c3ccc(Oc4ccc(OC(F)(F)F)cc4)cc3)CC2)cc1 [Example 202] | 9.70 | 9.40 | < 5.00 | – | – | – | –
20 | O=C(c1ccccc1)C1CCN(c2ccc(S(=O)(=O)C3(C(=O)NO)CCOCC3)cc2)CC1 [Example 656] | 6.92 | 8.51 | < 5.00 | – | – | – | –

Row | SMILES | pIC50 [1, 4] | pIC50 [2, 5] | pIC50 [3, 6] | IC50 ([2]; MMP-13 IC50 (nM), recombinant human MMP-13, MCA peptide substrate 4 μM, pH 7.5, room temperature) | pIC50 [1] | pIC50 [2] | pIC50 [3]
21 | O=C(NO)C1(S(=O)(=O)c2ccc(N3CCC(CC4CC4)CC3)cc2)CCOCC1 [Example 816] | < 5.00 | 5.92 | < 5.00 | – | – | – | –
22 | O=C(NO)C1(S(=O)(=O)c2ccc(N3CCC(c4cccc5c4CCCC5)CC3)cc2)CCOCC1 [Example 473] | 5.48 | 6.80 | < 5.00 | – | – | – | –
23 | CCN(CCCCC(=O)N1CCC(C(=O)NO)(S(=O)(=O)c2ccc(Oc3ccc(C(F)(F)F)cc3)cc2)CC1)Cc1ccncc1 [Example 344] | 9.19 | 8.54 | < 5.00 | – | – | – | –
24 | O=C(C1CCN(c2ccc(S(=O)(=O)C3(C(=O)NO)CCOCC3)cc2)CC1)N1CCC(CO)CC1 [Example 44] | – | – | – | – | 5.98 | 7.72 | < 5.00
25 | O=C(NO)C1(S(=O)(=O)c2ccc(N3CCC(OCc4ccc(F)c(F)c4)CC3)cc2)CCOCC1 [Example 179] | 6.77 | 7.69 | < 5.00 | – | – | – | –
26 | Cc1ccc(OC2CCN(c3ccc(S(=O)(=O)C4(C(=O)NO)CCOCC4)cc3)CC2)c([N+](=O)[O-])c1 [Example 551] | 6.85 | 8.05 | < 5.00 | – | – | – | –
27 | O=C(c1ccc(C(F)(F)F)cc1)C1CCN(c2ccc(S(=O)(=O)C3(C(=O)NO)CCOCC3)cc2)CC1 [Example 729] | 6.62 | 7.83 | < 5.00 | – | – | – | –
28 | O=C(NO)C1(S(=O)(=O)c2ccc(N3CCCN(c4ccc(OC(F)(F)F)cc4)CC3)cc2)CCOCC1 [Example 708] | 5.52 | 6.94 | < 5.00 | – | – | – | –
29 | CN(C)Cc1ccc(COC2CCN(c3ccc(S(=O)(=O)C4(C(=O)NO)CCOCC4)cc3)CC2)cc1 [Example 566] | 7.24 | 7.80 | < 5.00 | – | – | – | –
30 | CC(C)CC(=O)C1CCN(c2ccc(S(=O)(=O)C3(C(=O)NO)CCOCC3)cc2)CC1 [Example 756] | 7.54 | 8.15 | < 5.00 | – | – | – | –
31 | CCOc1ccc(C(=O)C2CCN(c3ccc(S(=O)(=O)C4(C(=O)NO)CCOCC4)cc3)CC2)cc1 [Example 791] | 6.15 | 8.70 | < 5.00 | – | – | – | –
32 | CCC(C)CCOCc1ccc(COC2CCN(c3ccc(S(=O)(=O)C4(C(=O)NO)CCOCC4)cc3)CC2)cc1 (stereo not drawn) [Example 603] | 5.64 | 7.80 | < 5.00 | – | – | – | –
33 | O=C(NO)C1(S(=O)(=O)c2ccc(Oc3cccnc3)cc2)CCSCC1 [Example 149] | 7.86 | 7.80 | 6.32 | – | – | – | –
34 | CCCCCN(C)C1CCN(c2ccc(S(=O)(=O)C3(C(=O)NO)CCOCC3)cc2)CC1 [Example 597] | 6.15 | 6.17 | < 5.00 | – | – | – | –
35 | O=C(NO)C1(S(=O)(=O)c2ccc(N3CCC(Sc4ccccc4)CC3)cc2)CCN(C2CC2)CC1 [Example 389] | 7.79 | 8.77 | < 5.00 | – | – | – | –
36 | COCCN1CCN(c2ccc(S(=O)(=O)C3(C(=O)NO)CCOCC3)cc2)CC1 [Example 645] | 5.92 | 6.43 | < 5.00 | – | – | – | –
37 | O=C(NO)C1(S(=O)(=O)c2ccc([C@H]3CC[C@H](c4ccccc4)CC3)cc2)CCOCC1 [Example 782] | 7.00 | 7.68 | < 5.00 | – | – | – | –
38 | CSc1nccc(N2CCC(C(=O)NO)(S(=O)(=O)c3ccc(Oc4ccc(OC(F)(F)F)cc4)cc3)CC2)n1 [Example 410] | 9.60 | 9.22 | < 5.00 | – | – | – | –
39 | O=C(NO)C1(S(=O)(=O)c2ccc(N3CCN(S(=O)(=O)c4ccccc4OC(F)(F)F)CC3)cc2)CCOCC1 [Example 673] | 6.34 | 7.83 | < 5.00 | – | – | – | –
40 | COCC1CCCN(c2ccc(S(=O)(=O)C3(C(=O)NO)CCOCC3)cc2)C1 (stereo not drawn) [Example 525] | 6.15 | 6.54 | < 5.00 | – | – | – | –
